A short description of test [1]: NIH-3T3 fibroblast cytotoxicity, dose response, cytotoxicity control, cell-based, fluorescence, Alamar Blue, secondary assay (AID 2327).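 Note: NIH-3T3 mouse fibroblasts cultured with fluconazole at 8 µg/mL.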 It is filed as functional. In general terms: The colour change of resazurin is a common sign of viable cells or microbes.
The nature of the next test: cells. It is filed as functional, cell-based.
In another test the target is Albumin (Bos taurus, UniProt P02769). The test can be described thus: Counterscreen for inhibitors of T-cell receptor (TCR)-CD3 interaction: Fluorescence-based biochemical high throughput dose response assay to identify inhibitors of T-cell receptor (TCR)-CD3 interaction using a TAMRA-labeled BSA probe. It is filed as functional.
Albumin, sequence (P02769 whole entry): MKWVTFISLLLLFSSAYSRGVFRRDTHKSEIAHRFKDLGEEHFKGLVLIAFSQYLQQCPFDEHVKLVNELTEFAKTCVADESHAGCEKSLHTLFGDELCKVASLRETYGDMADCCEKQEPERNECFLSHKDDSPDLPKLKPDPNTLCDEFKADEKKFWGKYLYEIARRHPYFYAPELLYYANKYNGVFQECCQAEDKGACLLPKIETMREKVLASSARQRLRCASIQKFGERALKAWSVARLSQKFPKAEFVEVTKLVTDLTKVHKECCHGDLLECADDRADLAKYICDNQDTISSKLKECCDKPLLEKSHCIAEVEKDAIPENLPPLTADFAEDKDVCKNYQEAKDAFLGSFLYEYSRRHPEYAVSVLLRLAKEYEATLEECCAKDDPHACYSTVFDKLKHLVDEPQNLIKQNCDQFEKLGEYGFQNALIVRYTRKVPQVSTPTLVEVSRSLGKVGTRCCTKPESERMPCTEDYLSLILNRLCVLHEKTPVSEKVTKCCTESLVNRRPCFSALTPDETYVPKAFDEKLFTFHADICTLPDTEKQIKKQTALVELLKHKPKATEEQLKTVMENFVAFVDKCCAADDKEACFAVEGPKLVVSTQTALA
In test [2] the target is T1, Histone-lysine N-methyltransferase NSD2 (Homo sapiens, UniProt O96028).
T1 sequence (O96028 whole entry): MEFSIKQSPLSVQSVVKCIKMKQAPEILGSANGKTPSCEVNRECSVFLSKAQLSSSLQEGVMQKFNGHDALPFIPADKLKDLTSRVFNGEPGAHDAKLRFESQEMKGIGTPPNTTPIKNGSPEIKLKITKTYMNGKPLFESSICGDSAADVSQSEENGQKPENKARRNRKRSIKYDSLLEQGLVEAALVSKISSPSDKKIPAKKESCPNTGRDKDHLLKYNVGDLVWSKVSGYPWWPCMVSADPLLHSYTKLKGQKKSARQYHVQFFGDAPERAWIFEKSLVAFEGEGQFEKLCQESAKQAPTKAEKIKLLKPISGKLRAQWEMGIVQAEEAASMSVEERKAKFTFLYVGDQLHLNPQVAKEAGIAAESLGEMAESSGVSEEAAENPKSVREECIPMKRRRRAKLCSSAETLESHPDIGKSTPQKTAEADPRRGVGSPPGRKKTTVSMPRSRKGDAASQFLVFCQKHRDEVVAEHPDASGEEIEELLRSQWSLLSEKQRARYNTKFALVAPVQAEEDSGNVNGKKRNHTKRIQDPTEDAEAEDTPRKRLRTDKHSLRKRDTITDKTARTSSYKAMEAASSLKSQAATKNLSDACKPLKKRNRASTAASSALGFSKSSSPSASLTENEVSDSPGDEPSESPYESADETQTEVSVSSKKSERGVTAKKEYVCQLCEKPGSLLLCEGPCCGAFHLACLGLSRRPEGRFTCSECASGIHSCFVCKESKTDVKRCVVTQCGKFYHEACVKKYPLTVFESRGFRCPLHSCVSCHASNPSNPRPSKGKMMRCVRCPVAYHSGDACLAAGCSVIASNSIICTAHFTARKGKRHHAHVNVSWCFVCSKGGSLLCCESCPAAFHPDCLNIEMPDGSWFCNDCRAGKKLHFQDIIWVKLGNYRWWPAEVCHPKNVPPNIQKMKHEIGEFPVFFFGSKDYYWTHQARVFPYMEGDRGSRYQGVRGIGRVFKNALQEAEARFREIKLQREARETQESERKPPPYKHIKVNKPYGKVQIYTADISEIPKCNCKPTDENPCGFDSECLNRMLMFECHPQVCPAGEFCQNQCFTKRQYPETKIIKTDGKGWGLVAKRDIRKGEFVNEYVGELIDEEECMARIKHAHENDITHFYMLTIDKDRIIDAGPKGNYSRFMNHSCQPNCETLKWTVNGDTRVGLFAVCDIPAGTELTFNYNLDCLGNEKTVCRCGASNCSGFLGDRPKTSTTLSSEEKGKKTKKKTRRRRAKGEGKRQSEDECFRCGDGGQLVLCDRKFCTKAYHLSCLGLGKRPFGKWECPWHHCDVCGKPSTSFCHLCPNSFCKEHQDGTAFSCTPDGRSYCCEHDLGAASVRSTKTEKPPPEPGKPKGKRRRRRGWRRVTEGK
It is filed as biochemical.

A short description of test [3]: HEK293T cytotoxicity, dose response, cytotoxicity control for miR-122 modulator project, cell-based, activator set, cherry-pick (AID 720690).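 Note: HEK293T human cells scored for general mammalian cytotoxicity.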 The class given is functional.
Another test concerns Streptococcus. The test can be described thus: Group A Streptococcus viability loss, dose response, counter-screen for streptokinase expression inhibitor project, luminescence, BacTiterGlo (AID 1915).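 Note: potency for reduction of bacterial viability or growth.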 The class given is functional, organism-based. (In general: The purpose of a counterscreen is to sort out artefacts and off-target activity.)
Test [4] can be described thus: HEK293T cytotoxicity, dose response, cytotoxicity control for miR-122 modulator project, cell-based, inhibitor set, cherry-pick, set 2 (AID 720697). The class given is functional.
For test [5], the target named is T2, SUMO-activating enzyme (Homo sapiens, UniProt Q9UBT2). The test can be described thus: SUMOylation inhibitor hit validation, confirmation, SUMOylation inhibitor project, biochemical, AlphaScreen (AID 2018). The class given is functional. In general terms: In Alpha technology, singlet oxygen from a donor bead excites a nearby acceptor bead.
T2 sequence (Q9UBE0 whole entry): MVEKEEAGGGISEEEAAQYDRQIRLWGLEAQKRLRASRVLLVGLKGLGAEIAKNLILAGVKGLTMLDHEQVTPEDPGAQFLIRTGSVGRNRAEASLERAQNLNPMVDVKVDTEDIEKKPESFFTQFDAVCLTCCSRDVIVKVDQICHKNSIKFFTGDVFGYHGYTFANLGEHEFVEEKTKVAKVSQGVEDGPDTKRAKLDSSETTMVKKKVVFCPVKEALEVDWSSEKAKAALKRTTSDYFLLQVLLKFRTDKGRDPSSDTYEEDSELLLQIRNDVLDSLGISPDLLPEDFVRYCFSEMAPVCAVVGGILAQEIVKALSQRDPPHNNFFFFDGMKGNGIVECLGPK
T2 sequence (Q9UBT2 whole entry): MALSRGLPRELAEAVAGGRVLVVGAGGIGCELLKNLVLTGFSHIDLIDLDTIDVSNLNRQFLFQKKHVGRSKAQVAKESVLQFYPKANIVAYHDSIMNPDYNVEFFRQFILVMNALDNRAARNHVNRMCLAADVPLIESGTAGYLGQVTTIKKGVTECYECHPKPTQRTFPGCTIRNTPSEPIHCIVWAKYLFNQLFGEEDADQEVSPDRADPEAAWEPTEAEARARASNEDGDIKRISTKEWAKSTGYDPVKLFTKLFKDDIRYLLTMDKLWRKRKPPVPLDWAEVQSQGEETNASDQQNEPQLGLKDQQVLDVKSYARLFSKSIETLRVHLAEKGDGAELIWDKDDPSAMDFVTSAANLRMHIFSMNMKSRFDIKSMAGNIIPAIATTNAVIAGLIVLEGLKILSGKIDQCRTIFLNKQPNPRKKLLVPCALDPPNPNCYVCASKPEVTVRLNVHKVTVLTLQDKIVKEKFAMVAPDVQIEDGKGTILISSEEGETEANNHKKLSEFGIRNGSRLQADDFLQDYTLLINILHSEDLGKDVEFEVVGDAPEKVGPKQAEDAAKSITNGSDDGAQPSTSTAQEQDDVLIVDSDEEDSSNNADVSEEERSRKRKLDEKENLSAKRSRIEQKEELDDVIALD
The target of test [6] is T3, Zinc finger protein mex-5 (Caenorhabditis elegans, UniProt Q9XUB2).
T3 sequence (Q9XUB2 whole entry): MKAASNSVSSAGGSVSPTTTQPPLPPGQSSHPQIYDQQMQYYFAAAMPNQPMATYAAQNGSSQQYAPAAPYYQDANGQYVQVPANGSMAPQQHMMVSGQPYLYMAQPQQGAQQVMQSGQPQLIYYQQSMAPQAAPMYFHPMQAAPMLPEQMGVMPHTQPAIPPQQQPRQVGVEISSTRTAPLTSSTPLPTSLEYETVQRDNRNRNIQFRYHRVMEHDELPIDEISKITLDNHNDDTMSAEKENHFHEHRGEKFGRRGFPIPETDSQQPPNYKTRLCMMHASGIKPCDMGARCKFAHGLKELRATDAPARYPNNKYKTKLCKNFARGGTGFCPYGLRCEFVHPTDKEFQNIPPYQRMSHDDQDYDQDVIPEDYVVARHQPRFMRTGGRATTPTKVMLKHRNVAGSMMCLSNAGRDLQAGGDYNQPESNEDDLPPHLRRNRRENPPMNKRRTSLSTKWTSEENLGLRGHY
Description: MEX-5/TCR-2 RNA interaction inhibitors, dose response, biochemical, C. elegans, fluorescence polarization (AID 1960).

The target in test [7] is T4, Sentrin-specific protease 8 (Homo sapiens, UniProt Q96LD8).
T4 sequence (Q96LD8 whole entry): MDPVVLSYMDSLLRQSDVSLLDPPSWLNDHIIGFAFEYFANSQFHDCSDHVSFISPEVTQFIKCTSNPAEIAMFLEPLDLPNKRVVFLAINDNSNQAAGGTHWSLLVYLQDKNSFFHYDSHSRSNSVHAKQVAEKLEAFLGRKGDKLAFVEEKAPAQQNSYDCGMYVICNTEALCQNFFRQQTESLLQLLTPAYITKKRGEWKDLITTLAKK
The class given is functional.

In test [8] the target is T2, SUMO-activating enzyme. The test can be described thus: inhibitors of in vitro SUMOylation cascade, primary screen, biochemical, HTRF, uHTS (AID 2006). The class given is protein-complex assay.
The target of test [9] is T4, Sentrin-specific protease 8. It is filed as functional. The source holds these as a separate data set.
The nature of test [10]: Luminescence Cell-Based Dose Response HTS to Identify Inhibitors of 5'UTR Stem-Loop Driven Prion Protein mRNA Translation in H4 Neuroglioblastoma Cells. [Related pubchem assays: 1827 (Project Summary), 1813 (Primary HTS)]. It is filed as functional.
A further test deals with INS1. Description: beta cell apoptosis inhibitors, cytokine rescue, dose response, luminescence, retest (AID 449756).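 Note: cell death triggered by IL-1 beta plus TNF-alpha plus IFN-gamma mixture; protective hits raise ATP signal compared with cytokine alone wells.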 To be noted: Rattus norvegicus. The class given is functional, cell-based.
The target in another test is Procathepsin L (Homo sapiens, UniProt P07711). The test can be described thus: cathepsin L inhibitors, dose response, counter-screen for M1/M17 aminopeptidase inhibitor project, biochemical, QFRET, 1536-well (AID 2214).
Procathepsin L, sequence (P07711 whole entry): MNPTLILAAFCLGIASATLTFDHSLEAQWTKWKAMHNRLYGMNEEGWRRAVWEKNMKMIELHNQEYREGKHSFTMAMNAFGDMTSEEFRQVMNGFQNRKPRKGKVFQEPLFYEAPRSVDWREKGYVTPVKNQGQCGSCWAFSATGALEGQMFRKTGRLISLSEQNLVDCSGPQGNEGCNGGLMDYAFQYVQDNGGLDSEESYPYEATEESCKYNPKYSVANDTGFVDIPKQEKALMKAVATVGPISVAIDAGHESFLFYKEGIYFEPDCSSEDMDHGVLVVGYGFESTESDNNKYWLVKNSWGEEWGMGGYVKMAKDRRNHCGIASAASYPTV
The target in test [11] is Glyceraldehyde-3-phosphate dehydrogenase (Homo sapiens, UniProt P04406).
Glyceraldehyde-3-phosphate dehydrogenase, sequence (P04406 whole entry): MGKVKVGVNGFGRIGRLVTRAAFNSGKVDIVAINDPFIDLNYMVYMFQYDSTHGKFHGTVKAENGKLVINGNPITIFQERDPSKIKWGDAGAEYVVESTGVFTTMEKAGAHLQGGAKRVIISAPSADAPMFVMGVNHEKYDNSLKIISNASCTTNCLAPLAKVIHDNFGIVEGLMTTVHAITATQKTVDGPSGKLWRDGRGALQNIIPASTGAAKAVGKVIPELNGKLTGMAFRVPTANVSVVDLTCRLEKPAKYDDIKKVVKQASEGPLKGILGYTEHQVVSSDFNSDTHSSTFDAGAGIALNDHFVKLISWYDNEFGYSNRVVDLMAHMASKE

In general, EC50 refers to the midpoint of the concentration-response curve. As a reminder, the IC50 is the concentration needed to halve the response being measured. The term AC50 denotes the midpoint of the concentration-response curve, whichever way the signal moves.

Active and inactive are the calls of the source.

For `Cn1c(O)c(/C=N/NC(=O)c2cc3ccccc3cc2O)c2ccccc21`, the concentration giving a half-maximal response (EC50) in [1] was > 160 µM (inconclusive); in the test “cells” it was 128 µM (active). Besides, the IC50 at Albumin is > 94.1 µM (inactive).

Turning to `COc1ccc(CC2=CC(=O)c3ccccc3C2=O)cc1`, the half-maximal activity concentration (AC50) in test [2] is 10.5 µM (active); in test [3] it was 5.27 µM (active); in [4], 10.2 µM (active). Also, the EC50 in the test on Streptococcus was 9.74 µM (active).

For the compound `c1coc(-c2nnc(-c3ccco3)nn2)c1`, the AC50 in [2] was 5.23 µM (active). Also, the IC50 is 0.99 µM (active) at SUMO-activating enzyme [5], 9.28 µM (active) in [7], 6.47 µM (active) on SUMO-activating enzyme [8] and 5.41 µM (active) in test [9]. Moreover, the EC50 in test [6] was 7.69 µM (active).

Take `O=C(Nc1cccc(NC(=O)c2ccccc2Cl)c1)c1ccc([N+](=O)[O-])o1`: the 50% effective concentration (EC50) in test [1] was 12.1 µM (inconclusive); in [10] it was 9.73 µM (active); in the test on Streptococcus it was 20.4 µM (inconclusive). Further, in the test with INS1, the AC50 is 7.35 µM (active).

Turning to `Oc1cc(-c2cccc3ccccc23)[nH]n1`, the half-inhibitory concentration (IC50) is > 59.6 µM (not active) at Procathepsin L and > 100 µM (not active) in test [11].

The values are drawn from ChEMBL document CHEMBL1201862, “PubChem BioAssay data set” (2004).
